The nature of series [1]: Cytotoxicity against mouse P815B cells after 24 hrs by MTS/PMS assay. Conditions: P815B cells; call rule not given here.
Series [2] concerns the target T1, Indoleamine 2,3-dioxygenase 1 (Homo sapiens, UniProt P14902). As to the kind of experiment: Inhibition of IDO1 (unknown origin) using L-tryptophan substrate incubated for 60 mins in presence of 0.01% Triton-X by HPLC. The following applies: read-out: IC50.
Series [3] deals with T1, Indoleamine 2,3-dioxygenase 1. The series is described as follows: Inhibition of IDO1 (unknown origin) using L-tryptophan substrate incubated for 60 mins by HPLC. The following applies: read-out: IC50.
For series [4] the target is unchanged. As to the kind of experiment: Inhibition of IDO1 (unknown origin) using L-tryptophan substrate incubated for 60 mins in presence of 5 mM GSH by HPLC.
Series [5] can be described thus: Solubility of the compound in pH 6.5 phosphate buffer containing 5% DMSO. The following applies: phosphate buffer containing 5% DMSO.
The target of series [6] is Indoleamine 2,3-dioxygenase 1 (Mus musculus, UniProt P28776). The series is described as follows: Inhibition of mouse IDO1 expressed in mouse P815B cells using L-tryptophan substrate incubated for 18 hrs by HPLC based cellular assay. The format is cell-based. The following applies: for IC50: p815b; for pIC50: read-out: IC50.
Indoleamine 2,3-dioxygenase 1 (Mus musculus, UniProt P28776), sequence (P28776 whole entry): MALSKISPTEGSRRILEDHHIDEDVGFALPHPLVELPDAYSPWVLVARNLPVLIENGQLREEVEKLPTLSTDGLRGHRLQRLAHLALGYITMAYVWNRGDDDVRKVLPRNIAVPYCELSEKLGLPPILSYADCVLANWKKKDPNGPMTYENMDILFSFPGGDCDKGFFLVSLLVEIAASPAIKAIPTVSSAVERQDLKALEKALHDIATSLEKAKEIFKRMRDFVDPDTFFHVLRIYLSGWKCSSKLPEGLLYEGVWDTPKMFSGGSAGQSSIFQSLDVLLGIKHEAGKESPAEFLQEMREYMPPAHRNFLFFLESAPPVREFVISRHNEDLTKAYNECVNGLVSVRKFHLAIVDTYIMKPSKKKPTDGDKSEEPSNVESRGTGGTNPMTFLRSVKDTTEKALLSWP
The target in series [7] is Tryptophan 2,3-dioxygenase (Mus musculus, UniProt P48776). The series is described as follows: Inhibition of mouse TDO expressed in mouse P815B cells using L-tryptophan substrate incubated for 24 hrs by HPLC based cellular assay. The format is cell-based. Conditions: for IC50: p815b.
Tryptophan 2,3-dioxygenase, sequence (P48776 whole entry): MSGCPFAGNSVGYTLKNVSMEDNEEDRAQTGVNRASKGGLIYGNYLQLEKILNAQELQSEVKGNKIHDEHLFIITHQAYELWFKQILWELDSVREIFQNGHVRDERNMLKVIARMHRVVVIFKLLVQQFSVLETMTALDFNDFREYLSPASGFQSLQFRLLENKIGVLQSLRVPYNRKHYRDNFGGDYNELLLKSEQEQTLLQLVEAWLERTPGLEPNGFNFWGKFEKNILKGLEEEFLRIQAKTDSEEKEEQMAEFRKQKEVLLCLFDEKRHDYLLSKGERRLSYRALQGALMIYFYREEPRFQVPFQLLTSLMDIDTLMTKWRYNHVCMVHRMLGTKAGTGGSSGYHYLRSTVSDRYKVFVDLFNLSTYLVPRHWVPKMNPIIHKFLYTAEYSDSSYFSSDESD

pIC50: −log10 of the molar value. In brackets after ≈: the same amount, converted by molar mass.

T1 sequence (P14902 whole entry): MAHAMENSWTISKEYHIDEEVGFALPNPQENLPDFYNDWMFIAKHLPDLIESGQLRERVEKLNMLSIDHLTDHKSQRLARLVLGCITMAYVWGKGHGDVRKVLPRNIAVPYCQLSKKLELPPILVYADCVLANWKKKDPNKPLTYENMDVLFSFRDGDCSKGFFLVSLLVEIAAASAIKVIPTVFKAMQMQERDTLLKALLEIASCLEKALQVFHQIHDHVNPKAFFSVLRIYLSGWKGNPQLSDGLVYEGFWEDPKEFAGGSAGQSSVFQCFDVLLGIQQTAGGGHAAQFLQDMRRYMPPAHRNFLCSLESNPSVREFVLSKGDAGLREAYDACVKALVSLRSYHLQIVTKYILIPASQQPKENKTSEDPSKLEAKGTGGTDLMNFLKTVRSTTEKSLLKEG

In series [1], `N#CC(C#N)=C1c2cc(S(N)(=O)=O)cc([N+](=O)[O-])c2-c2c1cc(S(N)(=O)=O)cc2[N+](=O)[O-]` had a CC50 at 24 h of over 25 µM. In addition, the negative logarithm of the IC50 (pIC50) in series [2] is 6.02; in series [3], 6.00; in series [4], 5.80. For the same compound, the solubility in series [5] came out at 250 µM (≈ 119 µg/mL). In addition, the IC50 result in series [6] and in series [7] was “Not Active” throughout.
For `Cc1ccc(-n2nnnc2C/C=N/Nc2ccc(Cl)cc2)cc1`, the CC50 at 24 h in series [1] turned out to be 10 µM. Besides, the negative-log IC50 (pIC50) in series [2] is 4.28; in series [3], 4.27; in series [4] it was 4.51; in series [6], 6.47; in series [7] (read-out: IC50) it was 5.38. In addition, the solubility in series [5] was found to be 12.5 µM (≈ 4.08 µg/mL).
Consider `COC(=O)/C(C#N)=C1/C(=O)Nc2ccccc21`, for which, in series [1], the CC50 at 24 h is over 25 µM. For the same compound, the pIC50 in series [3] was 5.74; in series [4], 3.89. In series [5], this compound had a solubility of 100 µM (≈ 22.8 µg/mL). Further, the IC50 result in series [6] and in series [7] was “Not Active” each time.
Compound `N#CC(C(=O)Nc1cccc(C(F)(F)F)c1)C(=S)Nc1ccccc1Cl` (centres undefined) had a half-maximal cytotoxic concentration (CC50) at 24 h in series [1] of over 25 µM. In addition, the pIC50 in series [2] was 5.20; in series [3], 5.15; in series [4] it was 4.15. Also, in series [5], the solubility was 1000 µM (≈ 398 µg/mL). The IC50 entry in series [6] and in series [7] was “Not Active” in each case.
In turn, `CCOC(=O)c1ccc(-n2sccc2=O)cc1` registered a CC50 at 24 h in series [1] of 10 µM. Further, the pIC50 in series [2] is 4.96; in series [3] it was 4.82; in series [4], 4.00. For the same compound, in series [5], the solubility is 500 µM (≈ 125 µg/mL). For the same compound, the IC50 result in series [6] and in series [7] was “Not Active” throughout.
In series [1], `CC(=O)N1CCN(c2ccc(OCC3COC(Cn4ccnc4)(c4ccc(Cl)cc4Cl)O3)cc2)CC1` (centres undefined) [KETOCONAZOLE] returned a CC50 at 24 h of 25 µM. The pIC50 in series [2] was 4.60; in series [3], 4.49. This compound came in with a solubility in series [5] of 100 µM (≈ 53.1 µg/mL). The IC50 result in series [6] and in series [7] was “Not Active” in each case.
Compound `O=c1ccsn1-c1cccc(Cl)c1F` displayed a CC50 at 24 h in series [1] of 10 µM. Besides, the pIC50 is 5.32 in series [2], 4.96 in series [3] and 3.70 in series [4]. The solubility in series [5] stood at 1000 µM (≈ 230 µg/mL). Further, the IC50 entry in series [6] and in series [7] was “Not Active” in each case.
`N=C(N)SCc1nc(-c2ccc(Cl)cc2)no1` displayed a CC50 at 24 h in series [1] of 10 µM. In addition, the pIC50 is 5.92 in series [2], 6.05 in series [3] and 5.68 in series [6]. In series [5], this compound gave a solubility of 1000 µM (≈ 269 µg/mL). Also, the IC50 result in series [7] is “Not Active”.
On to `COC(=O)/C(C#N)=C(\C#N)c1ccc(Br)o1`, for which half-maximal cytotoxicity in series [1] (CC50 at 24 h) was put at 5 µM. The figures for the pIC50 in series [3] and in series [4] were 6.15 and 5.15, respectively. The same compound registered a solubility in series [5] of 100 µM (≈ 28.1 µg/mL). Besides, the IC50 result in series [6] and in series [7] was “Not Active” throughout.

(Values after ChEMBL document CHEMBL3351924, “Detailed analysis and follow-up studies of a high-throughput screening for indoleamine 2,3-dioxygenase 1 (IDO1) inhibitors” (Eur J Med Chem, 2014).)
